Laboratory results from PubChem BioAssay AID248 (DTP/NCI, 2004).
Values joined by “and” are separate entries in the source; they are usually repeats but may differ in a detail not shown here. Identical values can stand only once. Inconclusive results and toxic doses are left out. No stated cut-off is given here; in the data, active means T/C of 150% or more; inactive means T/C below 125%.

Test system: L1210 leukemia ip in BDF1 mice, survival T/C
Test: NCI In Vivo Anticancer Drug Screen. Data for tumor model L1210 Leukemia (intraperitoneal) in B6D2F1 (BDF1) mice
Conditions: endpoint: mean survival time, higher = longer survival
In short: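 Read-out is survival time, reported as the treated-group measurement over the vehicle-control measurement.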

[1] = dose: 100.0 mg/kg/injection, schedule: Q01DX009 (ip), vehicle: saline with Tween-80
[2] = dose: 100.0 mg/kg/injection, schedule: Q04DX003 (ip), vehicle: saline with Tween-80
[3] = dose: 200.0 mg/kg/injection, schedule: Q04DX003 (ip), vehicle: saline with Tween-80
[4] = dose: 50.0 mg/kg/injection, schedule: Q01DX009 (ip), vehicle: water
[5] = dose: 100.0 mg/kg/injection, schedule: Q04DX003 (ip), vehicle: saline
[6] = dose: 200.0 mg/kg/injection, schedule: Q04DX003 (ip), vehicle: saline
[7] = dose: 75.0 mg/kg/injection, schedule: Q01DX009 (ip), vehicle: saline
[8] = dose: 150.0 mg/kg/injection, schedule: Q01DX009 (ip), vehicle: saline
[9] = dose: 300.0 mg/kg/injection, schedule: Q01DX009 (ip), vehicle: saline
[10] = dose: 200.0 mg/kg/injection, schedule: Q01DX001 (ip), vehicle: other

Measured: T/C

O=C(NCCC[P+](c1ccccc1)(c1ccccc1)c1ccccc1)OCc1ccccc1
inactive: dose: 12.5 mg/kg/injection, schedule: Q01DX009 (ip), vehicle: carboxymethylcellulose (CMC) 101 % of control and 120 % of control | dose: 12.5 mg/kg/injection, schedule: Q04DX002 (ip), vehicle: carboxymethylcellulose (CMC) 103 % of control | dose: 25.0 mg/kg/injection, schedule: Q01DX001 (ip), vehicle: carboxymethylcellulose (CMC) 87 % of control and 91 % of control | dose: 25.0 mg/kg/injection, schedule: Q01DX009 (ip), vehicle: carboxymethylcellulose (CMC) 103 % of control | dose: 25.0 mg/kg/injection, schedule: Q04DX002 (ip), vehicle: carboxymethylcellulose (CMC) 100 % of control and 91 % of control | dose: 25.0 mg/kg/injection, schedule: Q04DX003 (ip), vehicle: carboxymethylcellulose (CMC) 97 % of control and 98 % of control | dose: 50.0 mg/kg/injection, schedule: Q01DX001 (ip), vehicle: carboxymethylcellulose (CMC) 95 % of control and 104 % of control | dose: 50.0 mg/kg/injection, schedule: Q04DX002 (ip), vehicle: carboxymethylcellulose (CMC) 100 % of control | dose: 50.0 mg/kg/injection, schedule: Q04DX003 (ip), vehicle: carboxymethylcellulose (CMC) 97 % of control and 100 % of control

C[N+](C)(C)Cc1ccccc1
inactive: dose: 1.56 mg/kg/injection, schedule: Q01DX009 (ip), vehicle: saline 102 % of control | dose: 3.12 mg/kg/injection, schedule: Q01DX009 (ip), vehicle: saline 91 % of control | dose: 5.0 mg/kg/injection, schedule: Q01DX001 (ip), vehicle: saline 98 % of control | dose: 6.25 mg/kg/injection, schedule: Q01DX009 (ip), vehicle: saline 117 % of control | dose: 6.5 mg/kg/injection, schedule: Q01DX009 (ip), vehicle: saline 100 % of control | dose: 10.0 mg/kg/injection, schedule: Q01DX001 (ip), vehicle: saline 102 % of control and 109 % of control | dose: 12.0 mg/kg/injection, schedule: Q04DX003 (ip), vehicle: saline 113 % of control | dose: 12.5 mg/kg/injection, schedule: Q01DX009 (ip), vehicle: saline 100 % of control | dose: 20.0 mg/kg/injection, schedule: Q01DX001 (ip), vehicle: saline 98 % of control and 91 % of control | dose: 25.0 mg/kg/injection, schedule: Q01DX009 (ip), vehicle: saline 99 % of control and 107 % of control | dose: 25.0 mg/kg/injection, schedule: Q04DX003 (ip), vehicle: saline 87 % of control | dose: 50.0 mg/kg/injection, schedule: Q01DX009 (ip), vehicle: saline 96 % of control | dose: 100.0 mg/kg/injection, schedule: Q01DX009 (ip), vehicle: saline 96 % of control

Nc1nc(N)c(-c2ccc(Cl)c(Cl)c2)c(CCc2ccc(S(=O)(=O)F)cc2)n1
inactive: dose: 100.0 mg/kg/injection, schedule: Q01DX009 (ip), vehicle: Klucel (hydroxypropylcellulose) (HPC) 112 % of control | dose: 200.0 mg/kg/injection, schedule: Q01DX009 (ip), vehicle: Klucel (hydroxypropylcellulose) (HPC) 98 % of control

O=C(O)/C(I)=C(\I)C(=O)O
inactive: dose: 100.0 mg/kg/injection, schedule: Q04DX002 (ip), vehicle: saline 106 % of control | dose: 200.0 mg/kg/injection, schedule: Q04DX002 (ip), vehicle: saline 117 % of control

C=C(C(N)=O)c1cc(Cl)ccc1Cl
inactive: [1] 96 % of control | [2] 103 % of control | dose: 200.0 mg/kg/injection, schedule: Q01DX009 (ip), vehicle: saline with Tween-80 92 % of control | [3] 101 % of control | dose: 400.0 mg/kg/injection, schedule: Q01DX009 (ip), vehicle: saline with Tween-80 92 % of control | dose: 400.0 mg/kg/injection, schedule: Q04DX003 (ip), vehicle: saline with Tween-80 94 % of control

C=CC[N+](CC=C)(CC=C)CCC[N+](CC=C)(CC=C)CC=C
inactive: dose: 12.5 mg/kg/injection, schedule: Q01DX009 (ip), vehicle: water 98 % of control | dose: 25.0 mg/kg/injection, schedule: Q01DX009 (ip), vehicle: water 98 % of control and 101 % of control | [4] 102 % of control and 108 % of control

COC(=O)CNC(=O)C1CSC(C)(C)N1C=O (centres undefined)
inactive: [5] 104 % of control | [6] 101 % of control | dose: 400.0 mg/kg/injection, schedule: Q04DX003 (ip), vehicle: saline 98 % of control

CC1(C)C2CCC1C(O)C2 (centres undefined)
inactive: [7] 104 % of control | [8] 103 % of control | [9] 94 % of control

Cc1cccc2cccnc12
inactive: dose: 100.0 mg/kg/injection, schedule: Q01DX001 (ip), vehicle: other 104 % of control | [10] 106 % of control | dose: 400.0 mg/kg/injection, schedule: Q01DX001 (ip), vehicle: other 98 % of control

NC(Cc1ccccc1)c1ccc2oc3ccccc3c2c1 (centres undefined)
inactive: dose: 100.0 mg/kg/injection, schedule: Q01DX001 (ip), vehicle: Klucel (hydroxypropylcellulose) (HPC) 96 % of control | dose: 200.0 mg/kg/injection, schedule: Q01DX001 (ip), vehicle: Klucel (hydroxypropylcellulose) (HPC) 100 % of control | dose: 400.0 mg/kg/injection, schedule: Q01DX001 (ip), vehicle: Klucel (hydroxypropylcellulose) (HPC) 103 % of control

NC(=O)Nc1ccc2c(c1)Cc1cc(F)ccc1-2
inactive: dose: 87.0 mg/kg/injection, schedule: Q01DX001 (ip), vehicle: other 100 % of control | dose: 89.0 mg/kg/injection, schedule: Q01DX001 (ip), vehicle: carboxymethylcellulose (CMC) 97 % of control and 109 % of control | dose: 100.0 mg/kg/injection, schedule: Q01DX001 (ip), vehicle: carboxymethylcellulose (CMC) 97 % of control | dose: 132.0 mg/kg/injection, schedule: Q01DX001 (ip), vehicle: other 97 % of control | dose: 133.0 mg/kg/injection, schedule: Q01DX001 (ip), vehicle: carboxymethylcellulose (CMC) 100 % of control and 112 % of control | dose: 200.0 mg/kg/injection, schedule: Q01DX001 (ip), vehicle: carboxymethylcellulose (CMC) 104 % of control and 105 % of control | [10] 92 % of control | dose: 300.0 mg/kg/injection, schedule: Q01DX001 (ip), vehicle: carboxymethylcellulose (CMC) 101 % of control and 108 % of control | dose: 300.0 mg/kg/injection, schedule: Q01DX001 (ip), vehicle: other 97 % of control | dose: 400.0 mg/kg/injection, schedule: Q01DX001 (ip), vehicle: carboxymethylcellulose (CMC) 105 % of control

CC(=O)c1ccc(CC2CCC2)cc1
inactive: dose: 75.0 mg/kg/injection, schedule: Q01DX009 (ip), vehicle: Klucel (hydroxypropylcellulose) (HPC) 97 % of control | dose: 150.0 mg/kg/injection, schedule: Q01DX009 (ip), vehicle: Klucel (hydroxypropylcellulose) (HPC) 112 % of control | dose: 300.0 mg/kg/injection, schedule: Q01DX009 (ip), vehicle: Klucel (hydroxypropylcellulose) (HPC) 110 % of control

CC(Oc1ccccc1)C(=O)Nc1ccc(F)cc1 (centres undefined)
inactive: dose: 100.0 mg/kg/injection, schedule: Q04DX002 (ip), vehicle: Klucel (hydroxypropylcellulose) (HPC) 94 % of control | dose: 200.0 mg/kg/injection, schedule: Q04DX002 (ip), vehicle: Klucel (hydroxypropylcellulose) (HPC) 97 % of control | dose: 400.0 mg/kg/injection, schedule: Q04DX002 (ip), vehicle: Klucel (hydroxypropylcellulose) (HPC) 97 % of control

CC(O)(c1ccc(Cl)cc1)C(c1ccccc1)c1ccccn1 (centres undefined)
inactive: [4] 103 % of control | dose: 100.0 mg/kg/injection, schedule: Q01DX009 (ip), vehicle: water 95 % of control | dose: 100.0 mg/kg/injection, schedule: Q04DX003 (ip), vehicle: water 116 % of control | dose: 200.0 mg/kg/injection, schedule: Q01DX009 (ip), vehicle: water 96 % of control | dose: 200.0 mg/kg/injection, schedule: Q04DX003 (ip), vehicle: water 119 % of control | dose: 400.0 mg/kg/injection, schedule: Q01DX009 (ip), vehicle: water 97 % of control | dose: 400.0 mg/kg/injection, schedule: Q04DX003 (ip), vehicle: water 104 % of control

CC(Cl)(/N=N/C(C)(Cl)c1cccc(Cl)c1)c1ccc(Cl)cc1 (centres undefined)
inactive: [2] 94 % of control

COC(=O)/C(=C1/OC(=O)C(c2ccccc2)=C1O)c1ccccc1
inactive: dose: 25.0 mg/kg/injection, schedule: Q01DX009 (ip), vehicle: saline with Tween-80 93 % of control | dose: 50.0 mg/kg/injection, schedule: Q01DX009 (ip), vehicle: saline with Tween-80 95 % of control | [1] 93 % of control | [2] 100 % of control

O=c1c2ccccc2ncn1CCCBr
inactive: [7] 95 % of control | [8] 103 % of control | [9] 95 % of control

[CH3][Sb]1([Cl])[CH2]CC[CH2]1
inactive: [2] 103 % of control | [5] 101 % of control | [3] 107 % of control | [6] 108 % of control

C/C(=N/N(C)C)c1cccc(C(F)(F)F)c1
inactive: [5] 98 % of control | [6] 116 % of control
